Measurements as given in PubChem BioAssay (NCI).
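Tested at 5 concentrations; 48 h exposure; 96-well plates; endpoints linearly interpolated, else capped at highest concentration. GI50: concentration for 50% inhibition of growth. At the TGI there is no net growth.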

Columns and labels:
Experiment in all cases: NCI-60 cell line screen, 48 h
786-0 renal = test system: 786-0 renal
A498 renal = test system: A498 renal
A549 NSCLC = test system: A549 NSCLC
ACHN renal = test system: ACHN renal
BT-549 breast = test system: BT-549 breast
CAKI-1 renal = test system: CAKI-1 renal
CCRF-CEM leukemia = test system: CCRF-CEM leukemia
COLO 205 colon = test system: COLO 205 colon
DU-145 prostate = test system: DU-145 prostate
EKVX NSCLC = test system: EKVX NSCLC
HCC-2998 colon = test system: HCC-2998 colon
HCT-116 colon = test system: HCT-116 colon
HCT-15 colon = test system: HCT-15 colon
HL-60(TB) leukemia = test system: HL-60(TB) leukemia
HOP-62 NSCLC = test system: HOP-62 NSCLC
HOP-92 NSCLC = test system: HOP-92 NSCLC
HS 578T breast = test system: HS 578T breast
HT29 colon = test system: HT29 colon
IGROV1 ovarian = test system: IGROV1 ovarian
K-562 leukemia = test system: K-562 leukemia
KM12 colon = test system: KM12 colon
LOX IMVI melanoma = test system: LOX IMVI melanoma
M14 melanoma = test system: M14 melanoma
MALME-3M melanoma = test system: MALME-3M melanoma
MCF7 breast = test system: MCF7 breast
MDA-MB-231 breast = test system: MDA-MB-231 breast
MOLT-4 leukemia = test system: MOLT-4 leukemia
NCI-H226 lung = test system: NCI-H226 lung
NCI-H23 lung = test system: NCI-H23 lung
NCI-H460 lung = test system: NCI-H460 lung
NCI-H522 lung = test system: NCI-H522 lung
NCI/ADR-RES ovarian = test system: NCI/ADR-RES ovarian
OVCAR-3 ovarian = test system: OVCAR-3 ovarian
OVCAR-4 ovarian = test system: OVCAR-4 ovarian
OVCAR-5 ovarian = test system: OVCAR-5 ovarian
OVCAR-8 ovarian = test system: OVCAR-8 ovarian
PC-3 prostate = test system: PC-3 prostate
RPMI-8226 leukemia = test system: RPMI-8226 leukemia
RXF 393 renal = test system: RXF 393 renal
SF-268 CNS = test system: SF-268 CNS
SF-295 CNS = test system: SF-295 CNS
SF-539 CNS = test system: SF-539 CNS
SK-MEL-2 melanoma = test system: SK-MEL-2 melanoma
SK-MEL-28 melanoma = test system: SK-MEL-28 melanoma
SK-MEL-5 melanoma = test system: SK-MEL-5 melanoma
SK-OV-3 ovarian = test system: SK-OV-3 ovarian
SN12C renal = test system: SN12C renal
SNB-19 CNS = test system: SNB-19 CNS
SNB-75 CNS = test system: SNB-75 CNS
SW-620 colon = test system: SW-620 colon
T-47D breast = test system: T-47D breast
TK-10 renal = test system: TK-10 renal
U251 CNS = test system: U251 CNS
UACC-257 melanoma = test system: UACC-257 melanoma
UACC-62 melanoma = test system: UACC-62 melanoma
UO-31 renal = test system: UO-31 renal

SMILES: Cc1ccc(S(=O)(=O)n2cc(C(=O)C(=O)Nc3ccncc3)c3ccccc32)cc1
- GI50 (786-0 renal): 3.89 µM
- TGI (786-0 renal): > 73.2 µM
- GI50 (A498 renal): 4.11 µM
- TGI (A498 renal): 77.6 µM
- GI50 (A549 NSCLC): 16.5 µM
- TGI (A549 NSCLC): > 100 µM
- GI50 (ACHN renal): 7.82 µM
- TGI (ACHN renal): > 100 µM
- GI50 (BT-549 breast): 3.62 µM
- TGI (BT-549 breast): > 100 µM
- GI50 (CAKI-1 renal): 1.82 µM
- TGI (CAKI-1 renal): > 100 µM
- GI50 (CCRF-CEM leukemia): 4.53 µM
- TGI (CCRF-CEM leukemia): > 100 µM
- GI50 (COLO 205 colon): 18.7 µM
- TGI (COLO 205 colon): 48.1 µM
- GI50 (DU-145 prostate): 3.34 µM
- TGI (DU-145 prostate): > 100 µM
- GI50 (EKVX NSCLC): 3.23 µM
- TGI (EKVX NSCLC): > 100 µM
- GI50 (HCC-2998 colon): 4.25 µM
- TGI (HCC-2998 colon): > 100 µM
- GI50 (HCT-116 colon): 0.465 µM
- TGI (HCT-116 colon): 23.1 µM
- GI50 (HCT-15 colon): 0.555 µM
- TGI (HCT-15 colon): > 100 µM
- GI50 (HL-60(TB) leukemia): 0.635 µM
- TGI (HL-60(TB) leukemia): 3.66 µM
- GI50 (HOP-62 NSCLC): 4.43 µM
- TGI (HOP-62 NSCLC): > 100 µM
- GI50 (HOP-92 NSCLC): 0.644 µM
- TGI (HOP-92 NSCLC): 7.01 µM
- TGI (HS 578T breast): > 100 µM
- GI50 (HT29 colon): 0.464 µM
- TGI (HT29 colon): 12.1 µM
- GI50 (IGROV1 ovarian): 5.74 µM
- TGI (IGROV1 ovarian): > 100 µM
- GI50 (K-562 leukemia): 0.522 µM
- TGI (K-562 leukemia): > 100 µM
- GI50 (KM12 colon): 0.595 µM
- TGI (KM12 colon): > 84.6 µM
- GI50 (LOX IMVI melanoma): 1.04 µM
- TGI (LOX IMVI melanoma): > 100 µM
- GI50 (M14 melanoma): 0.907 µM
- TGI (M14 melanoma): > 100 µM
- GI50 (MALME-3M melanoma): 43 µM
- TGI (MALME-3M melanoma): > 100 µM
- GI50 (MCF7 breast): 0.373 µM
- TGI (MCF7 breast): 27.3 µM
- GI50 (MDA-MB-231 breast): 5.92 µM
- TGI (MDA-MB-231 breast): > 100 µM
- GI50 (MOLT-4 leukemia): 1.77 µM
- TGI (MOLT-4 leukemia): > 76.5 µM
- GI50 (NCI-H226 lung): 8.6 µM
- TGI (NCI-H226 lung): > 100 µM
- GI50 (NCI-H23 lung): 0.556 µM
- TGI (NCI-H23 lung): > 60.7 µM
- GI50 (NCI-H460 lung): 7.05 µM
- TGI (NCI-H460 lung): 96.8 µM
- GI50 (NCI-H522 lung): 0.438 µM
- TGI (NCI-H522 lung): 12.9 µM
- GI50 (NCI/ADR-RES ovarian): 0.406 µM
- TGI (NCI/ADR-RES ovarian): > 34.1 µM
- GI50 (OVCAR-3 ovarian): 0.765 µM
- TGI (OVCAR-3 ovarian): 16.7 µM
- GI50 (OVCAR-4 ovarian): 4.22 µM
- TGI (OVCAR-4 ovarian): > 100 µM
- GI50 (OVCAR-5 ovarian): 8.19 µM
- TGI (OVCAR-5 ovarian): > 100 µM
- GI50 (OVCAR-8 ovarian): 3.1 µM
- TGI (OVCAR-8 ovarian): > 100 µM
- GI50 (PC-3 prostate): 1.6 µM
- TGI (PC-3 prostate): > 100 µM
- GI50 (RPMI-8226 leukemia): 1.45 µM
- TGI (RPMI-8226 leukemia): > 100 µM
- GI50 (RXF 393 renal): 2.7 µM
- TGI (RXF 393 renal): 9.29 µM
- GI50 (SF-268 CNS): 2 µM
- TGI (SF-268 CNS): > 100 µM
- GI50 (SF-295 CNS): 1.67 µM
- TGI (SF-295 CNS): 9.57 µM
- GI50 (SF-539 CNS): 1.56 µM
- TGI (SF-539 CNS): 6.84 µM
- GI50 (SK-MEL-2 melanoma): 5.76 µM
- TGI (SK-MEL-2 melanoma): > 71.4 µM
- GI50 (SK-MEL-28 melanoma): 4.17 µM
- TGI (SK-MEL-28 melanoma): > 100 µM
- GI50 (SK-MEL-5 melanoma): 0.785 µM
- TGI (SK-MEL-5 melanoma): 21.3 µM
- GI50 (SK-OV-3 ovarian): 19.6 µM
- TGI (SK-OV-3 ovarian): 71.2 µM
- GI50 (SN12C renal): 4.79 µM
- TGI (SN12C renal): > 100 µM
- GI50 (SNB-19 CNS): 7.37 µM
- TGI (SNB-19 CNS): > 100 µM
- GI50 (SNB-75 CNS): 1.72 µM
- TGI (SNB-75 CNS): 16.3 µM
- GI50 (SW-620 colon): 1.23 µM
- TGI (SW-620 colon): > 100 µM
- GI50 (T-47D breast): 4.93 µM
- TGI (T-47D breast): > 100 µM
- GI50 (TK-10 renal): 16.8 µM
- TGI (TK-10 renal): > 100 µM
- GI50 (U251 CNS): 1.4 µM
- TGI (U251 CNS): > 56.1 µM
- GI50 (UACC-257 melanoma): 9.03 µM
- TGI (UACC-257 melanoma): 98.1 µM
- GI50 (UACC-62 melanoma): 0.829 µM
- TGI (UACC-62 melanoma): > 46.7 µM
- GI50 (UO-31 renal): 5.45 µM
- TGI (UO-31 renal): > 100 µM
